Source: patent publication US11679096B1, “Composition and method of treatment of elevated ApoE gene expression related health issues” (priority 2022, dated 2023)

Tests used:
[1] = system: ApoE gene transcripts in Alzheimer disease (AD) fibroblasts; test: Effects of individual components on ApoE gene transcription in AD fibroblasts (young and old donors, not separated); assay type: cell-based, human; conditions: 1 ug/ml, overnight
[2] = system: ApoE gene transcripts in NHDF; test: ApoE gene transcription (RT-PCR) in normal human dermal fibroblasts; assay type: cell-based; conditions: overnight
[3] = system: ApoE gene transcripts in AD fibroblasts (AG07887); test: ApoE gene transcription (RT-PCR) in fibroblasts from young Alzheimer's disease donor; assay type: cell-based, human; conditions: with IL1b, Mix 1 at 1 mcg/ml, estradiol 5 nM
Experimental: (§1) ApoE and iNOS determination: Fibroblasts from Alzheimer disease (AD) […] (AG07887), and […] (AG08629) and/or Normal Human fibroblasts (NHDF) and/or lung cancer cell line A549 were grown on DMEM/F12 without phenol red (Gibco, USA). Media was supplemented with charcoal stripped, sterile-filtered 10% fetal bovine serum (Sigma-Millipore, USA Origen), and 1% penicillin-streptomycin.
(§2) Cells were separated and splatted in 2 cm cell culture dishes and subjected to none or treated with IL-1βat 15 pg/ml, in the presence of Basic Mix (1 μg/ml), Mix 1-1 (1 μg/ml), Mix 1-2 (2 μg/ml), genistein (1 μg/ml), and estrogen E2 (5 nM) as indicated in each experiment. Treated cells were incubated for two hours or overnight followed by RNA isolation and purification for RT-PCR analysis.
(§3) Total RNA was obtained by standard method RNeasy* Plus, (Qiagen, Germany) lysing cells with RLT Plus buffer according to the manufacturer's instructions. Equal amount of RNA extracted from each treated lysate was reverse transcribed in 20 microliters reactions with RT-QuantiTech kit (Qiagen, Germany). […] Amplification in 40 cycles and Ct quantification was carried out in CFX-Connect PCR-system from BioRad. Relative expression of the target gene data was analyzed using delta Ct method and compared to delta Ct of expression of a reference gene. […]

[4] = system: MCF7 estrogen-dependent breast cancer cells; test: In vitro MCF7 cells proliferation (E-SCREEN) assay, MTT; assay type: cell-based, human; conditions: β-17-estradiol 0.5 μg/ml, 6 days
Experimental: In vitro MCF7 cells proliferation (E-SCREEN) assay: MCF-7 cells (1×10^3 cells/well of a 96-well plate) were cultured with different micronutrients and plant extracts (0.5-5 μg/ml) with added β-17-estradiol (0.5 μg/ml) for 6 days at 37° C. Thereafter, medium in each well, including control wells, was replaced with 150 μl of tetrazolium MTT (3-(4, 5-dimethylthiazolyl-2)-2,5-diphenyltetrazolium bromide) ([…]). Wells that received DMSO only were used as negative control whereas that cells that receive only β-17-estradiol were use as positive control. Next, cells were incubated for 3 h at 37° C., the supernatant with MTT was removed, and the adherent cells were rinsed with PBS. Next, 150 μl of isopropanol was added to each well and the absorbance was measured at 570 nm using the microplate reader. Percentage of MTT reduction by metabolically active cell to purple formazan (reflecting cell proliferation rate) was calculated as following equation: Proliferation rate=[(ODsample-ODcontrol)/ODcontrol].
We used MCF7 cancer cells which are epithelial cells isolated from the breast tissue of a patient with metastatic adenocarcinoma and depend on estrogen to proliferate. […]

[5] = system: ApoE gene transcripts in lung cancer cell line A549; test: ApoE gene transcription (RT-PCR) in lung cancer cells with IL-1β; assay type: cell-based, human; conditions: A549, IL-1 15 pg/ml; Mix 1 4 μg/ml, estrogen 5 nM, genistein 1 μg/ml
Experimental: as §1, §2, §3

[6] = system: ApoE gene transcripts in AD fibroblasts (AG08629); test: ApoE gene transcription (RT-PCR) in fibroblasts from old Alzheimer's disease donor; assay type: cell-based, human; conditions: with IL1b, Mix 1 at 1 mcg/ml, Basic Mix 1 ug/ml, estradiol 5 nM
Experimental: as §1, §2, §3

[7] = system: iNOS gene transcripts in lung cancer cell line A549; test: iNOS expression (RT-PCR) in lung cancer cells with IL-1β; assay type: cell-based, human
Experimental: as §1, §2, §3

[8] = pro-inflammatory conditions (IL1b 15 pg/ml)
[9] = normal conditions (without IL1β)
[10] = pro-inflammatory condition (with IL1β)

In the case of `O=c1c(-c2ccc(O)cc2)coc2cc(O)ccc12` [Daidzein], the “effect of individual compounds on ApoE transcript” value (from here on “effect of individual compounds”) [1, 8] is reported as “ApoE increasing effects”.

For `Cc1c(C)c2c(c(C)c1O)CC[C@@](C)(CCC[C@H](C)CCC[C@H](C)CCCC(C)C)O2` [Vitamin E, D-alpha-tocopherol], the “effect on ApoE expression” value [2, 9] was “moderate lowering effect”.

With `C[C@]12CC[C@@H]3c4ccc(O)cc4CC[C@H]3[C@@H]1CC[C@@H]2O` [estrogen, β-17-estradiol] the “decrease of ApoE transcription” value [3] was “equal to control”, the “MCF7 proliferation rate, higher compared to normal control” value [4] was “about 1.2 folds” and the “effect on ApoE transcripts in human lung cancer cells” value [5] was “inhibitory effect”. For the same molecule, the “decrease of ApoE transcript compared to no treatment control” value [6] was “about 3 times” and the “increase of iNOS expression over control” value ([7]; A549, IL-1 15 pg/ml, estrogen 5 nM) was “more than 20 times”.

`O=c1c(-c2ccc(O)cc2)coc2cc(O)cc(O)c12` [genistein] was tested, and the “effect of individual compounds” value [1, 8] was “slight ApoE lowering effect”, the “effect on ApoE transcripts in human lung cancer cells” value [5] was “inhibitory effect” and the “lowering of iNOS transcript” value ([7]; A549, pro-inflammatory conditions (IL1b), 1 mcg/ml) was “comparable”.

`O[C@H]1[C@H](O)[C@@H](O)[C@H](O)[C@@H](O)[C@H]1O` [inositol, Inositol] was tested, and the “effect on ApoE expression” value [2, 10] was “comparable”.

For `O=c1c(O)c(-c2ccc(O)c(O)c2)oc2cc(O)cc(O)c12` [quercetin], the “effect of individual compounds” value ([1]; normal conditions (without IL1b)) was “lowering effect” and the “effect of individual compounds” value [1, 8] was “ApoE increasing effects”.

In the case of `CC(C)(CO)[C@@H](O)C(=O)NCCC(=O)O` [vitamin B5, Pantothenic acid], the “effect on ApoE expression” value [2, 9] is reported as “moderate lowering effect”.

phosphatidyl choline was tested, and the “effect on ApoE expression” value [2, 10] was “comparable”.
